In patent US10259810B2, “N-sulfonylated pyrazolo[3,4-b]pyridin-6-carboxamides and method of use” (AbbVie S.à.r.l., priority 2015, dated 2019):

Assays:
ΔF508-CFTR [1] = target: T1, ΔF508-CFTR (Homo sapiens, UniProt P13569, DEL508-508); assay: CFTR cell surface levels using HRP-tagged ΔF508-CFTR expressing CFBE cells, intrinsic corrector capacity; assay type: cell-based; parameters: % Activation: concentration or dose not given beside the values; conditions: HRP-tagged ΔF508-CFTR expressing CFBE41o- cells, compound alone (intrinsic corrector capacity), 20 hours at 33° C.; for EC50: read-out: EC50
T1 construct: host or cells: CFBE41o-, doxycycline-inducible
From the text: (§1) Measuring CFTR Cell Surface Levels Using HRP-Tagged ΔF508-CFTR Expressing CFBE Cells
(§2) The HRP-tagged ΔF508-CFTR cell assay measures the expression of CFTR-ΔF508 at the plasma membrane. CFTR-ΔF508 has a folding defect leading to absence of protein at the plasma membrane. This assay is used to evaluate the capacity of compounds to increase the expression of CFTR-ΔF508 at the plasma membrane. The CFTR-ΔF508 is tagged with HRP (horse radish peroxidase enzyme) within the ECL4 (Extracellular loop 4) of CFTR (Phuan, P.-W. et al. Synergy-based small-molecule screen using a human lung epithelial cell line yields ΔF508-CFTR correctors that augment VX-809 maximal efficacy. Mol. Pharmacol. 86, 42-51 (2014)). When HRP-tagged ΔF508-CFTR is present at the plasma membrane, the HRP enzyme activity can be measured. The amount of CFTR-ΔF508 that can be rescued to the plasma membrane is correlated with the amount of functional enzyme that can be measured.
(§3) There are several ways to measure the capacity of compounds to rescue CFTR-ΔF508 to the plasma membrane; either compounds are evaluated on their own and the impact on plasma membrane levels is measured or compounds are evaluated in combination with a co-corrector, i.e. a compound that rescues CFTR-ΔF508 to the plasma membrane but rescue can be enhanced by addition of compounds due to a complementary mode of action.
Activity of Compounds for their Intrinsic Corrector Capacity:
For this purpose doxycycline-inducible ΔF508-CFTR-HRP expressing CFBE4lo− cells (obtained from Gergely Lukacs, McGill University) were maintained in MEM (Gibco; 31095) supplemented with 10% fetal bovine serum (Hyclone; SV30160.03) under puromycin (3 μg/mL) and G418 selection (0.2 mg/mL). For compound testing, cells were seeded at 4000 cells/well in white 384-well plates (Greiner; 781080) in 50 μL medium containing 0.5 μg/mL doxycycline and incubated for 68 hours at 37° C., 5% CO2. On day four, […] compounds diluted in PBS were added to the plates at a final DMSO concentration of 0.1%. All compound plates contained negative controls (DMSO) and positive controls ([…] corrector, 3-[(2R,4R)-4-({[1-(2,2-difluoro-1,3-benzodioxol-5-yl)cyclopropyl]carbonyl}amino)-7-methoxy-3,4-dihydro-2H-chromen-2-yl]benzoic acid). Cell plates were incubated at 33° C., 5% CO2 for 20 hours. On day five, the cells were washed five times with phosphate-buffered saline, and HRP activity was assayed by the addition of 50 μL/well of HRP substrate (SuperSignal™ West Pico Chemiluminescent Substrate, Thermo Scientific; 34080). After incubation for 15 minutes in the dark, chemiluminescence was measured using a plate reader (EnVision®, Perkin Elmer). Raw data were normalized to percentage activity values using the equation: 100×(Sample−Negative control)/(Positive control−Negative Control).

ΔF508-CFTR [2] = target: T1, ΔF508-CFTR; assay: CFTR cell surface levels using HRP-tagged ΔF508-CFTR expressing CFBE cells, in the presence of a co-corrector; assay type: cell-based; conditions: HRP-tagged ΔF508-CFTR CFBE cells, in the presence of 3 μM co-corrector; for EC50: read-out: EC50
From the text: as §1, §2, §3
Activity of Compounds in Combination with Co-Corrector:
For this purpose doxycycline-inducible ΔF508-CFTR-HRP expressing CFBE4lo− cells (obtained from Gergely Lukacs, McGill University) were maintained in MEM (Minimum Essential Medium, Gibco; 31095) supplemented with 10% fetal bovine serum (Hyclone; SV30160.03) under puromycin (3 μg/mL) and G418 selection (0.2 mg/mL). For compound testing, cells were seeded at 4000 cells/well in white 384-well plates (Greiner; 781080) in 50 μL of medium containing 0.5 μg/mL doxycycline and incubated for 68 hours at 37° C., 5% CO2. On day four, 10 μL of test compounds diluted in PBS (phosphate buffered saline) were added to the plates at a final DMSO concentration of 0.1%. In order to measure compound synergy with a co-corrector, 3 μM co-corrector (3-[(2R,4R)-4-({[1-(2,2-difluoro-1,3-benzodioxol-5-yl)cyclopropyl]carbonyl}amino)-7-methoxy-3,4-dihydro-2H-chromen-2-yl]benzoic acid) was added along with test compounds. All compound plates contained negative controls (DMSO) and positive controls (3 μM co-corrector). Cell plates were incubated at 33° C., 5% CO2 for 20 hours. On day five, the cells were washed five times with phosphate-buffered saline, and HRP activity was assayed by the addition of 50 μL/well of HRP substrate (SuperSignal™ West Pico Chemiluminescent Substrate, Thermo Scientific; 34080). After incubation for 15 minutes in the dark, the chemiluminescence was measured using a plate reader (EnVision®, Perkin Elmer). Raw data were normalized to percentage activity values using the equation: 100×(Sample−Negative control)/(Positive control−Negative Control).

T1 sequence (P13569 with tags, fused parts or gaps DEL508-508): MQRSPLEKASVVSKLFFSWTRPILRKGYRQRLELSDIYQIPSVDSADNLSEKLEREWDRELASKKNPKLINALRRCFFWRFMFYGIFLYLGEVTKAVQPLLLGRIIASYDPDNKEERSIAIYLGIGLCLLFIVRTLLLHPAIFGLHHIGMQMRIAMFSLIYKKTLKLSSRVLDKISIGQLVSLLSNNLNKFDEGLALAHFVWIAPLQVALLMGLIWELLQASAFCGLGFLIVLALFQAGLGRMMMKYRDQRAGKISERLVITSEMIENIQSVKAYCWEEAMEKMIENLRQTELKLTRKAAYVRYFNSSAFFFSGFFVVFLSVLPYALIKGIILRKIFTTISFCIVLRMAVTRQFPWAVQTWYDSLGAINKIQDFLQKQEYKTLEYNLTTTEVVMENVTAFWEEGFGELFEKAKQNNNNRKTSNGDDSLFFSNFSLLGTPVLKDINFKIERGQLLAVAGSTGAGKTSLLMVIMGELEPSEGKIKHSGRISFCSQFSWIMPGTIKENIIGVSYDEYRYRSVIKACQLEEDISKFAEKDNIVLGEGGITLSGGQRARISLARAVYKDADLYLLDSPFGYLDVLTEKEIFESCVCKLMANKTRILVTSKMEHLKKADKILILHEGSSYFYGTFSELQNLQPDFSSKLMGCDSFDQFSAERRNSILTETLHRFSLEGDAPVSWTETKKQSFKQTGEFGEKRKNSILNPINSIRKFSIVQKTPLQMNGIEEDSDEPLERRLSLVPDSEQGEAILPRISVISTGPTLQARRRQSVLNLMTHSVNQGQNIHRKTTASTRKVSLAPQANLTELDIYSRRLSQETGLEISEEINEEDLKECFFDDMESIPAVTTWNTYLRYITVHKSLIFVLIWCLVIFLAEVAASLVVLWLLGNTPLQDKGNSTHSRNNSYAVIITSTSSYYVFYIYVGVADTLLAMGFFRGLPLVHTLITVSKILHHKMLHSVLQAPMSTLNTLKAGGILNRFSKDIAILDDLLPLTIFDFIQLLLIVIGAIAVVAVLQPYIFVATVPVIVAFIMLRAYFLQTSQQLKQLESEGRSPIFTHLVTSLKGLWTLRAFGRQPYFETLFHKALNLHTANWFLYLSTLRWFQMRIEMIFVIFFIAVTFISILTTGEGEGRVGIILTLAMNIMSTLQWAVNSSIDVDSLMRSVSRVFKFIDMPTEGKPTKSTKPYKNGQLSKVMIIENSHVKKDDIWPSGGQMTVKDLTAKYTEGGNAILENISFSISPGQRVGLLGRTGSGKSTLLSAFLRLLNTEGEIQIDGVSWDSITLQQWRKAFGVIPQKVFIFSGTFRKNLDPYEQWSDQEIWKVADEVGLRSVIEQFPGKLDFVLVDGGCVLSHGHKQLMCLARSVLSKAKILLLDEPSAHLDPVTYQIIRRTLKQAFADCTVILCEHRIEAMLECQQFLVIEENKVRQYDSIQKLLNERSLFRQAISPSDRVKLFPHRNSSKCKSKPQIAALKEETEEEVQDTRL

Structure (SMILES)	% Activation (ΔF508-CFTR [1]) [%]	EC50 (ΔF508-CFTR [1]) [nM]	% Activation (ΔF508-CFTR [2]) [%]	EC50 (ΔF508-CFTR [2]) [nM]
Cc1nn(-c2ccccc2)c2nc(C(=O)NS(=O)(=O)C(F)(F)F)cc(-c3ccc(N4CCOCC4)cc3)c12 [Compound 3, 3-methyl-4-[4-(morpholin-4-yl)phenyl]-1-phenyl-N-(trifluoromethanesulfonyl)-1H-pyrazolo[3,4-b]pyridine-6-carboxamide]	53.08	3340		
CC(C)COC(=O)N1CCN(c2cc(C(=O)NS(=O)(=O)N3CCOCC3)nc3c2c(C2CCC2)nn3-c2ccc(F)cc2)CC1 [Compound 682, 2-methylpropyl 4-{3-cyclobutyl-1-(4-fluorophenyl)-6-[(morpholine-4-sulfonyl)carbamoyl]-1H-pyrazolo[3,4-b]pyridin-4-yl}piperazine-1-carboxylate]	260.8	297		
CC(C)COC(=O)N1CCN(c2cc(C(=O)NS(C)(=O)=O)nc3c2c(C2CCC2)nn3-c2ccc(F)cc2)CC1 [Compound 681, 2-methylpropyl 4-{3-cyclobutyl-1-(4-fluorophenyl)-6-[(methanesulfonyl)carbamoyl]-1H-pyrazolo[3,4-b]pyridin-4-yl}piperazine-1-carboxylate]	366.2	172		
O=C(NS(=O)(=O)C1CC1)c1cc(OCC2CCOCC2)c2c(C3CCC3)nn(-c3ccccc3)c2n1 [Compound 333, 3-cyclobutyl-N-(cyclopropanesulfonyl)-4-[(oxan-4-yl)methoxy]-1-phenyl-1H-pyrazolo[3,4-b]pyridine-6-carboxamide]	180	82.8		
CCOC(=O)N1CCN(c2cc(C(=O)NS(=O)(=O)NC)nc3c2c(C2CCC2)nn3-c2ccc(F)cc2)CC1 [Compound 680, ethyl 4-{3-cyclobutyl-1-(4-fluorophenyl)-6-[(methylsulfamoyl)carbamoyl]-1H-pyrazolo[3,4-b]pyridin-4-yl}piperazine-1-carboxylate]	351.2	339		
CN1CCC2(CC1)CCN(c1cc(C(=O)NS(=O)(=O)N3CCOCC3)nc3c1c(C1CCC1)nn3-c1ccc(F)cc1)CC2 [Compound 685, 3-cyclobutyl-1-(4-fluorophenyl)-4-(9-methyl-3,9-diazaspiro[5.5]undecan-3-yl)-N-(morpholine-4-sulfonyl)-1H-pyrazolo[3,4-b]pyridine-6-carboxamide]	144.3	770		
CCOC(=O)N1CCN(c2cc(C(=O)NS(C)(=O)=O)nc3c2c(C2CCC2)nn3-c2ccc(F)cc2)CC1 [Compound 679, ethyl 4-{3-cyclobutyl-1-(4-fluorophenyl)-6-[(methanesulfonyl)carbamoyl]-1H-pyrazolo[3,4-b]pyridin-4-yl}piperazine-1-carboxylate]	476.9	132		
CCOC(=O)N1CCN(c2cc(C(=O)NS(=O)(=O)CCOC)nc3c2c(C2CCC2)nn3-c2ccc(F)cc2)CC1 [Compound 677, ethyl 4-{3-cyclobutyl-1-(4-fluorophenyl)-6-[(2-methoxyethanesulfonyl)carbamoyl]-1H-pyrazolo[3,4-b]pyridin-4-yl}piperazine-1-carboxylate]	458.5	171		
CC(C)c1nn(-c2ccc(F)cc2)c2nc(C(=O)NS(C)(=O)=O)cc(N3CCC4(CC3)NC(=O)NC4=O)c12 [Compound 341, 4-(2,4-dioxo-1,3,8-triazaspiro[4.5]decan-8-yl)-1-(4-fluorophenyl)-N-(methanesulfonyl)-3-(propan-2-yl)-1H-pyrazolo[3,4-b]pyridine-6-carboxamide]			165.4	3330
COCCN(C)c1cc(C(=O)NS(C)(=O)=O)nc2c1c(C(C)C)nn2-c1ccc(F)cc1 [Compound 301, 1-(4-fluorophenyl)-N-(methanesulfonyl)-4-[(2-methoxyethyl)(methyl)amino]-3-(propan-2-yl)-1H-pyrazolo[3,4-b]pyridine-6-carboxamide]			376.6	1140
